The supplement of paper PMC11451515

Test system: P12-Ichikawa
Experiment: cell viability relative to DMSO control; higher = less cytotoxic
Conditions: 48 h
Procedure, shortened: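 Viability is a per-plate percentage relative to DMSO wells, with cell-free wells as background. CellTiter-Glo One luminescence was read after 48 h at 37°C on 1536-well plates (5 μl) of NOMO1 or SEM (500 cells/well) or P12-Ichikawa (1000 cells/well) leukemia cells. The cells had been adapted for at least four passages in each medium and pin-dosed with library compounds in DMSO from 47 μM to 0.79 nM in 11 threefold steps.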

[1] = HPLM + 10% dialyzed FBS, 0.000781 µM
[2] = HPLM + 10% dialyzed FBS, 0.00234 µM
[3] = HPLM + 10% dialyzed FBS, 0.00702 µM
[4] = HPLM + 10% dialyzed FBS, 0.0632 µM
[5] = HPLM + 10% dialyzed FBS, 0.19 µM
[6] = HPLM + 10% dialyzed FBS, 0.569 µM
[7] = HPLM + 10% dialyzed FBS, 1.71 µM
[8] = HPLM + 10% dialyzed FBS, 5.12 µM
[9] = HPLM + 10% dialyzed FBS, 15.4 µM
[10] = HPLM + 10% dialyzed FBS, 46.1 µM
[11] = RPMI 5 mM glucose + 10% FBS, 0.000781 µM
[12] = RPMI 5 mM glucose + 10% FBS, 0.00234 µM
[13] = RPMI 5 mM glucose + 10% FBS, 0.00702 µM
[14] = RPMI 5 mM glucose + 10% FBS, 0.0211 µM
[15] = RPMI 5 mM glucose + 10% FBS, 0.0632 µM
[16] = RPMI 5 mM glucose + 10% FBS, 0.19 µM
[17] = RPMI 5 mM glucose + 10% FBS, 0.569 µM
[18] = RPMI 5 mM glucose + 10% FBS, 1.71 µM
[19] = RPMI 5 mM glucose + 10% FBS, 5.12 µM
[20] = RPMI 5 mM glucose + 10% FBS, 15.4 µM
[21] = RPMI 5 mM glucose + 10% FBS, 46.1 µM
[22] = RPMI 5 mM glucose + 10% dialyzed FBS, 0.000781 µM
[23] = RPMI 5 mM glucose + 10% dialyzed FBS, 0.00234 µM
[24] = RPMI 5 mM glucose + 10% dialyzed FBS, 0.00702 µM
[25] = RPMI 5 mM glucose + 10% dialyzed FBS, 0.0211 µM
[26] = RPMI 5 mM glucose + 10% dialyzed FBS, 0.0632 µM
[27] = RPMI 5 mM glucose + 10% dialyzed FBS, 0.19 µM
[28] = RPMI 5 mM glucose + 10% dialyzed FBS, 0.569 µM
[29] = RPMI 5 mM glucose + 10% dialyzed FBS, 1.71 µM
[30] = RPMI 5 mM glucose + 10% dialyzed FBS, 5.12 µM
[31] = RPMI 5 mM glucose + 10% dialyzed FBS, 15.4 µM
[32] = RPMI 5 mM glucose + 10% dialyzed FBS, 46.1 µM
[33] = HPLM + 10% dialyzed FBS, 0.0211 µM

Row | Structure (SMILES) | cell viability [1] [%] | cell viability [2] [%] | cell viability [3] [%] | cell viability [4] [%] | cell viability [5] [%] | cell viability [6] [%] | cell viability [7] [%] | cell viability [8] [%] | cell viability [9] [%] | cell viability [10] [%] | cell viability [11] [%] | cell viability [12] [%] | cell viability [13] [%] | cell viability [14] [%] | cell viability [15] [%] | cell viability [16] [%] | cell viability [17] [%] | cell viability [18] [%] | cell viability [19] [%] | cell viability [20] [%] | cell viability [21] [%] | cell viability [22] [%] | cell viability [23] [%] | cell viability [24] [%] | cell viability [25] [%] | cell viability [26] [%] | cell viability [27] [%] | cell viability [28] [%] | cell viability [29] [%] | cell viability [30] [%] | cell viability [31] [%] | cell viability [32] [%] | cell viability [33] [%]
1 | CC[C@H](CC#N)OC(=O)N[C@@H](C)c1cccc(NC(=O)Nc2ccc(-c3cnco3)c(OC)c2)c1 | 117 | 112 | 120 | 111 | 107 | 106 | 74.9 | 49.8 | 49.1 | 40.6 | 119 | 121 | 118 | 117 | 132 | 113 | 97.2 | 65.9 | 44.3 | 33.4 | 30.4 | 112 | 120 | 111 | 120 | 121 | 110 | 90.4 | 59.1 | 42.3 | 40.2 | 40.6 | 
2 | NC1(Cc2ccc(Cl)cc2)CCN(c2ncnc3[nH]ccc23)CC1 | 105 | 109 | 105 | 106 | 103 | 102 | 94.7 | 82.3 | 65.8 | 48.3 | 101 | 99.4 | 101 | 99.7 | 91.9 | 97.8 | 84.7 | 73.1 | 53.7 | 40.7 | 28.5 | 103 | 103 | 104 | 102 | 102 | 91.1 | 91 | 79.6 | 66.9 | 47 | 34.5 | 108
3 | COc1nccc(-c2c(-c3ccc(F)cc3)ncn2C2CCNCC2)n1 | 99.1 | 108 | 113 | 113 | 100 | 96 | 100 | 104 | 90.6 | 80.2 | 109 | 112 | 106 | 120 | 117 | 106 | 108 | 98.2 | 109 | 104 | 90.5 | 98.2 | 111 | 117 | 111 | 119 | 110 | 106 | 98.9 | 104 | 94.7 | 80.7 | 110
4 | COc1ccc(-c2cc3nccn3c(Nc3ncccc3C(N)=O)n2)cc1OC | 103 | 112 | 110 | 113 | 119 | 117 | 115 | 116 | 114 | 109 | 97.4 | 109 | 105 | 111 | 111 | 109 | 97.4 | 104 | 114 | 107 | 96.5 | 99 | 111 | 111 | 105 | 110 | 115 | 116 | 90.9 | 114 | 101 | 102 | 112
5 | CC\1=C/C=C\C=[N]1[Pt](N)(Cl)Cl | 98.1 | 108 | 113 | 105 | 109 | 102 | 114 | 104 | 107 | 108 | 98.1 | 98.4 | 102 | 104 | 118 | 118 | 114 | 106 | 99.1 | 108 | 97.3 | 102 | 109 | 98.3 | 107 | 114 | 112 | 110 | 105 | 105 | 87.2 | 91.4 | 108
6 | COC1=C(N2CCNC(C)C2)C(=CC3=C1N(\C=C(C(O)=O)/C3=O)C4CC4)F (centres undefined) | 101 | 105 | 112 | 91.1 | 111 | 106 | 106 | 98.1 | 101 | 87.5 | 102 | 105 | 108 | 99.6 | 88.2 | 105 | 100 | 106 | 17.8 | 96.7 | 76.9 | 94.5 | 101 | 99.2 | 104 | 95.8 | 98.1 | 99.9 | 104 | 101 | 99.8 | 78.6 | 101
7 | OC[C@H]1O[C@@H](O[C@@H]2[C@@H](CO)O[C@](O)(CO)[C@H]2O)[C@H](O)[C@@H](O)[C@H]1O | 98.3 | 104 | 95.2 | 110 | 97 | 101 | 97.8 | 88.8 | 71.1 | 93.4 | 93.4 | 97.2 | 97 | 98.2 | 100 | 96.4 | 99 | 89.8 | 94.5 | 65.2 | 93.6 | 90.9 | 93 | 92.8 | 99.5 | 100 | 98.5 | 105 | 91.5 | 86 | 62.2 | 77.9 | 105
8 | CN1[C@@H]2CC(OC(=O)[C@@H](CO)c3ccccc3)C[C@H]1[C@H]1O[C@H]12 (some centres undefined) | 97 | 94.9 | 103 | 101 | 101 | 101 | 103 | 98.7 | 92.9 | 102 | 98.8 | 100 | 102 | 106 | 107 | 105 | 106 | 110 | 98.8 | 104 | 104 | 94.3 | 97.1 | 93.1 | 95.2 | 99.2 | 96.3 | 93.3 | 95 | 101 | 89.5 | 105 | 103
9 | COC(=O)Nc1nc2cc(C(=O)c3cccs3)ccc2[nH]1 | 121 | 107 | 110 | 37 | 17.8 | 25.4 | 14.6 | 10.1 | 10.2 | 36.8 | 117 | 123 | 119 | 82 | 42.2 | 18.1 | 23.3 | 16.7 | 10.5 | 11.8 | 33.1 | 120 | 114 | 128 | 96.5 | 57.6 | 27.3 | 35 | 25.1 | 17.4 | 18.5 | 48 | 55.9
10 | CCc1cc(Nc2nccc(-c3c(-c4ccc(OC)c(C(=O)Nc5c(F)cccc5F)c4)nc4ccccn34)n2)c(OC)cc1N1CCC(N2CCN([S+](C)(=O)[O-])CC2)CC1 | 97.9 | 108 | 100 | 107 | 112 | 110 | 110 | 112 | 87.1 | 39.8 | 98.3 | 101 | 106 | 105 | 107 | 113 | 111 | 113 | 109 | 85.1 | 37.9 | 108 | 116 | 112 | 114 | 107 | 107 | 109 | 125 | 115 | 87.4 | 49.6 | 112
11 | O=C(NOCC(O)CO)c1cc(Br)c(F)c(F)c1Nc1ccc(I)cc1F (centres undefined) | 82.9 | 84.2 | 81.7 | 83.8 | 74.8 | 74.4 | 68.2 | 64.2 | 73.9 | 52.3 | 74.6 | 87.6 | 79 | 73.8 | 80.3 | 67.9 | 63.8 | 62.5 | 56.2 | 66.4 | 54.5 | 76.2 | 79.2 | 73.9 | 81.9 | 74.3 | 71.2 | 65.6 | 71.8 | 66.1 | 76.6 | 58.7 | 87.8
12 | Cc1c(CN2CCN(C(=O)[C@H](C)O)CC2)sc2c(N3CCOCC3)nc(-c3cnc(N)nc3)nc12 | 96.6 | 99.8 | 99.1 | 94.9 | 99.8 | 75 | 69.3 | 63.8 | 60.8 | 59.8 | 95.6 | 94 | 90.7 | 86.8 | 75.1 | 79.5 | 64.4 | 52.9 | 49.4 | 46.2 | 43.5 | 93.5 | 94.8 | 97.4 | 98.5 | 81.6 | 77.8 | 63.1 | 54.5 | 41.9 | 46 | 42.6 | 103
13 | O=NN(CCCl)C(=O)NC1CCCCC1 | 102 | 106 | 107 | 107 | 107 | 112 | 111 | 111 | 103 | 105 | 102 | 96.5 | 97.1 | 97.3 | 116 | 113 | 104 | 97.2 | 112 | 107 | 111 | 97.4 | 105 | 105 | 102 | 113 | 108 | 105 | 110 | 105 | 103 | 113 | 96.4
14 | N=C(CCSCc1csc(N=C(N)N)n1)N[S+](N)(=O)[O-] | 95.2 | 102 | 103 | 108 | 98.2 | 106 | 103 | 106 | 108 | 102 | 93.1 | 97.4 | 97.3 | 94 | 96.2 | 93.2 | 97.6 | 95.3 | 95.3 | 87.3 | 99.1 | 80.3 | 89.1 | 98.3 | 91 | 95.1 | 94.9 | 95 | 88.7 | 93.5 | 87.1 | 83.2 | 95.7
15 | CN(C)CCOc1cc(-c2cn[nH]c2)ccc1NC(=O)C1COc2ccccc2O1 (centres undefined) | 105 | 112 | 103 | 114 | 117 | 110 | 104 | 98.7 | 95.3 | 95.3 | 107 | 113 | 115 | 112 | 117 | 118 | 128 | 113 | 107 | 88.8 | 84.1 | 105 | 122 | 123 | 116 | 122 | 125 | 128 | 118 | 109 | 95.8 | 97.2 | 107
